Measurements taken from patent US5607970A, “ACAT inhibitory agent” (priority 1991, dated 1997).
Where two headings read alike, the source gives them in different places.

How the values were obtained:
[1] = tested on: ACAT activity of small intestine epithelial cells; assay: Animal test: ACAT activity of small intestine epithelial cells after administration in feed; type: in vivo; settings: male hamsters, 1 mg/animal/day mixed in feed
Procedure: A test substance according to the present invention was administered to hamsters (males, body weight: 100 g) at a dose of 1 mg/animal/day by mixing in the same to their feed. The ACAT activity of small intestine epithelial cells was then measured after one week and after two weeks.

[2] = biological target: T1, ACAT (AcylCoA-Cholesterolacyltransferase) (Oryctolagus cuniculus, UniProt G1SFD9); assay: ACAT inhibitory activity in test tube (method of Heider et al., [1-14C]oleylCoA, small intestine epithelium microsome fraction); type: biochemical, rabbit; settings: read-out: Inhibitory Ratio (%)
T1 construct: from tissue; host or cells: rabbit small intestine epithelium, microsome fraction
T1 sequence (G1SFD9 1-524): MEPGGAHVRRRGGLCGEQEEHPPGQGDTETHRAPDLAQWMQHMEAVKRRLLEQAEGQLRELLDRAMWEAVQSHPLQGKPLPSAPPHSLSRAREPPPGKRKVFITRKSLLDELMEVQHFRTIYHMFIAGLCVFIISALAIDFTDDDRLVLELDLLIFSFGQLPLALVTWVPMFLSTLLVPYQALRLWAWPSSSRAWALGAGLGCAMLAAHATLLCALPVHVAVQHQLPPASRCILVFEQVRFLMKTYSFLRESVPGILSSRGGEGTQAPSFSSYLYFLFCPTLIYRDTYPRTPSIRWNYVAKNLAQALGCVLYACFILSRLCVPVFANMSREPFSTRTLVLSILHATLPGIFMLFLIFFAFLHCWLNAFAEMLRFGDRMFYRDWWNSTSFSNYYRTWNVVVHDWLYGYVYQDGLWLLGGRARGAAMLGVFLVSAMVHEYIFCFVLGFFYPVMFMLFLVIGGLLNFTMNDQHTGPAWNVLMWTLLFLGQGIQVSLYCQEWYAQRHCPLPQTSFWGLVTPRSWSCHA
Procedure: That is, a rabbit is fed a 1% cholesterol diet for 3 weeks followed by dissection and extraction of the small intestine. After peeling off the small intestine epithelium and crushing with a homogenizer, incompletely crushed solids are removed by centrifugal separation. […] After allowing the reaction to proceed for the prescribed amount of time, 7 ml of a mixture of dichloromethane: methanol (2:1) is added to the reaction mixture and thoroughly mixed. The reaction, is stopped and the dichloromethane layer is removed, after which the cholesterol oleate portion is separated from that fraction by silica gel TLC (developing solution: petroleum ether:diethyl ether=95:5). The separated portion is scraped off and the radioactivity is measured using a liquid scintillation counter to calculate ACAT activity.

[3] = Concentration 20 μg/ml, rabbit small intestine microsome ACAT
[4] = Concentration 50 μg/ml, rabbit small intestine microsome ACAT
[5] = Concentration 100 μg/ml, rabbit small intestine microsome ACAT
[6] = Concentration 150 μg/ml, rabbit small intestine microsome ACAT
[7] = Concentration 200 μg/ml, rabbit small intestine microsome ACAT

Structure (SMILES)	ACAT Inhibitory Ratio (%) After 1 week [1] [%]	ACAT Inhibitory Ratio (%) After 2 weeks [1] [%]	inhibition at 20 µg/mL [2] [%]	inhibition at 50 µg/mL [2] [%]	inhibition at 100 µg/mL [2] [%]	inhibition at 150 µg/mL [2] [%]	inhibition at 200 µg/mL [2] [%]	inhibition at 20 µg/mL [2, 3] [%]	inhibition at 50 µg/mL [2, 4] [%]	inhibition at 100 µg/mL [2, 5] [%]	inhibition at 150 µg/mL [2, 6] [%]	inhibition at 200 µg/mL [2, 7] [%]
CCCCCCCC/C=C\CCCCCCCC(=O)OCC(O)CO (stereo not shown)	60	52	30	59	81	92	100					
CCCCC/C=C\C/C=C\CCCCCCCC(=O)OCC(O)CO (stereo not shown)	59	53						28	54	74	86	93
CCCCCCCC/C=C\CCCCCCCC(=O)OC(CO)CO	64	56	32	62	82	94	100					
CCCCCCCCCCCCCCCC(=O)OCC(O)CO (stereo not shown) [1-palmitoylglycerol]	56	50						26	56	75	86	94
CC/C=C\C/C=C\C/C=C\CCCCCCCC(=O)OCC(O)CO (stereo not shown) [1-linolenoylglycerol]	57	51	25	50	76	86	92					
CCCCCC/C=C\CCCCCCCC(=O)OCC(O)CO (stereo not shown) [1-palmitooleylglycerol]	57	54						24	53	72	84	91
CCCCCCCCCCCCCCCCCC(=O)OCC(O)CO (stereo not shown) [1-stearoylglycerol]	31	29	15	29	38	45	49					
